The text below walks through data of patent US8143288B2, “Inhibitors of HCV replication” (priority 2005, dated 2012).

In the assay the test system is HCV 1b-377-neo replicon cells. The assay is described as follows: HCV replicon FRET assay. The format is cell-based. The conditions noted are these: Hepatitis C virus; HCV replicon; read-out: Activity (EC50). The source says:
The HCV replicon cell line was isolated from colonies as described by Lohman, et. al. (Science 1999, 285, 110-113, expressly incorporated by reference in its entirety) and used for all experiments. The HCV replicon has the nucleic acid sequence set forth in EMBL Accession No.: AJ242652, the coding sequence of which is from nt 1801 to 7758.
The coding sequence of the published HCV replicon was synthesized by Operon Technologies, Inc. (Alameda, Calif.), and the fall-length replicon was then assembled in plasmid pGem9zf(+) (Promega, Madison, Wis.) using standard molecular biology techniques. The replicon consists of (i) the HCV 5′ UTR fused to the first 12 amino acids of the capsid protein, (ii) the neomycin phosphotransferase gene (neo), (iii) the IRES from encephalomyocarditis virus (EMCV), and (iv) HCV NS3 to NS5B genes and the HCV 3′ UTR. Plasmid DNAs were linearized with ScaI and RNA transcripts were synthesized in vitro using the T7 MegaScript transcription kit (Ambion, Austin, Tex.) according to manufacturer's directions.
To generate cell lines, 4×10^6 Huh-7 cells (kindly provided by R. Bartenschlager and available from Health Science Research Resources Bank, Japan Health Sciences Foundation) were electroporated (GenePulser System, Bio-Rad) with 10 micrograms(“μg”) of RNA transcript and plated into 100-mm dishes. After 24 hours, selective media containing 1.0 milligrams/milliliter (“mg/mL”) G418 was added and media was changed every 3 to 5 days. […] These cell lines were maintained at 37° C., 5% CO2, 100% relative humidity in DMEM (Cat#11965-084) Gibco-BRL, Rockville, Md., with 10% heat inactivated calf serum (Sigma), 10 mL of 100× penicillin/streptomycin (Cat#15140-122) Gibco-BRL, Rockville, Md., Geneticin (Cat#10131-027) Gibco-BRL, Rockville, Md. at 1 mg/mL. One of the cell lines (deposited as ATCC Accession No. PTA-4583 in the American Type Culture Collection) which had approximately 3,000 copies of HCV replicon RNA/cell was used for development of the assay (HCV 1b-377-neo replicon cells).
To perform the HCV FRET screening assay, 96-well cell culture plates were used. The FRET peptide (Anaspec, Inc., San Jose, Calif.) (Taliani et al., Anal. Biochem. 1996, 240, 60-67, hereby incorporated by reference in its entirety) contains a fluorescence donor, EDANS, near one end of the peptide and an acceptor, DABCYL, near the other end. The fluorescence of the peptide is quenched by […] resonance energy transfer (RET) between the donor and the acceptor, but as the NS3 protease cleaves the peptide the products are released from RET quenching and the fluorescence of the donor becomes apparent.
The assay reagent was made as follows: 5X luciferase cell culture lysis (Cat#E153A, Promega, Madison, Wis.) diluted to 1X with dH2O, NaCl added to […] final, the FRET peptide diluted to 20 micromolar (“μM”) final from a 2 mM stock. HCV 1b-377-neo replicon cells were trypsinized, placed into each well of a 96-well plate and allowed to attach overnight. The next day, the test compounds were added to columns 1 through 10; column 11 was media plus DMSO only, and column 12 contained a titration of interferon or an HCV specific inhibitor as a control (1000 units for A12, B12, 100 units for C12, D12, 10 units for E12, F12 and 1 unit for G12, H12). […] In addition, naïve Huh-7 cells could also be used to replace wells A12 and B12 as a background control.
At subsequent various times (typically 72 hours), 10% final volume Alamar blue (Cat#00-100, Trek Diagnostics, Cleveland, Ohio) was added to each well. The plates were returned to the incubator for 5 hours and then read in the Cytoflour (PE Biosystems) to determine Alamar blue conversion in each well as a measure of cellular toxicity.
(In general: A replicon is a self-replicating genome or part of one, used to study replication in cells.)

For `CC(=O)N1C[C@H](OC(C)(C)C)C[C@H]1C(=O)Nc1ccc(/C=C/c2ccc(NC(=O)[C@@H]3C[C@@H](OC(C)(C)C)CN3C(=O)[C@H]3CCCO3)cc2)cc1` [Example 129], the EC50 – broadly, the concentration needed to bring the measured effect to its halfway point – fell in the range of 100 to 1000 nM. In the case of `O=C(O)CCC(=O)N1CCC[C@H]1C(=O)Nc1ccc(/C=C/c2ccc(NC(=O)[C@@H]3CCCN3C(=O)CCC(=O)O)cc2)cc1` [Example 30] it was 100 to 1000 nM.

`O=C(Cc1ccccc1)NCC(=O)Nc1ccc(/C=C/c2ccc(NC(=O)[C@@H]3CCCN3C(=O)Cc3ccccc3)cc2)cc1` [Example 257]: the EC50 was 100 to 1000 nM. Under `Cc1cc(CC(=O)N2CCC[C@H]2C(=O)Nc2ccc(/C=C/c3ccc(NC(=O)[C@@H]4CCCN4C(=O)Cc4cc(C)no4)cc3)cc2)on1` [Example 36] stands 0.1 to 90 nM; under `O=C(Nc1ccc(/C=C/c2ccc(NC(=O)[C@@H]3CCCN3C(=O)OCc3ccccc3)cc2)cc1)C1CC1` [Example 293], 100 to 1000 nM.

For `O=C(Nc1ccc(/C=C/c2ccc(NC(=O)[C@@H]3CCCN3C(=O)c3ccccc3Oc3ccccc3)cc2)cc1)[C@@H]1CCCN1C(=O)c1ccccc1Oc1ccccc1` [Example 147], the half-maximal effective concentration (EC50) lay in the range of 100 to 1000 nM.

For `COC(=O)N1c2ccccc2C[C@H]1C(=O)N1CCC[C@H]1C(=O)Nc1ccc(/C=C/c2ccc(NC(=O)[C@@H]3CCCN3C(=O)[C@@H]3Cc4ccccc4N3C(=O)OC)cc2)cc1` [Example 189], the EC50 was 1000 to 10000 nM. Under `O=C(Nc1ccc(/C=C/c2ccc(NC(=O)[C@@H]3CCCN3C(=O)C3CC3)cc2)cc1)[C@@H]1CCCN1C(=O)C1CC1` [Example 31] stands 0.1 to 90 nM; under `CN(Cc1ccccc1)c1ccccc1C(=O)N1CCC[C@H]1C(=O)Nc1ccc(/C=C/c2ccc(NC(=O)[C@@H]3CCCN3C(=O)c3ccccc3N(C)Cc3ccccc3)cc2)cc1` [Example 162], 1000 to 10000 nM. For `C=Cc1ccccc1C(=O)N1CCC[C@H]1C(=O)Nc1ccc(/C=C/c2ccc(NC(=O)[C@@H]3CCCN3C(=O)c3ccccc3C=C)cc2)cc1` [Example 238], the EC50 lay in the range of 1000 to 10000 nM. With `COc1ccc(C(=O)N2CCC[C@H]2C(=O)Nc2ccc(/C=C/c3ccc(NC(=O)[C@@H]4CCCN4C(=O)c4ccc(OC)nc4OC)cc3)cc2)c(OC)n1` [Example 193], the EC50 fell in the range of 1000 to 10000 nM. Take `O=C(Nc1ccc(/C=C/c2ccc(NC(=O)[C@@H]3CCCN3C(=O)c3ccccc3-n3cccc3)cc2)cc1)[C@@H]1CCCN1C(=O)c1ccccc1-n1cccc1` [Example 137]: the EC50 lay within 1000 to 10000 nM.

`CSCC(=O)N1CCC[C@H]1C(=O)Nc1ccc(/C=C/c2ccc(NC(=O)[C@@H]3CCCN3C(=O)Cc3cccs3)cc2)cc1` [Example 99]: the EC50 was in the range of 0.1 to 90 nM.

As for `O=C(Nc1ccc(/C=C/c2ccc(NC(=O)[C@@H]3CCCN3C(=O)C3Cc4ccccc43)cc2)cc1)[C@@H]1CCCN1` (some centres unmarked) [Example 115], the EC50 was in the range of 1000 to 10000 nM. With `Cc1ccoc1C(=O)N1CCC[C@H]1C(=O)Nc1ccc(/C=C/c2ccc(NC(=O)[C@@H]3CCCN3C(=O)c3occc3C)cc2)cc1` [Example 200], the half-maximal effective concentration (EC50) was in the range of 100 to 1000 nM.

Take `O=C(Nc1ccc(/C=C/c2ccc(NC(=O)[C@@H]3CCCN3C(=O)c3cc(F)ccc3F)cc2)cc1)[C@@H]1CCCN1C(=O)c1cc(F)ccc1F` [Example 108]: the EC50 is 100 to 1000 nM. Under `C[C@H](NC(=O)Cc1ccccc1)C(=O)Nc1ccc(/C=C/c2ccc(NC(=O)[C@@H]3CCCN3C(=O)Cc3ccccc3)cc2)cc1` [Example 271] stands 0.1 to 90 nM. `COCC(=O)N1CCC[C@H]1C(=O)Nc1ccc(/C=C/c2ccc(NC(=O)[C@@H]3CCCN3C(=O)Cc3cc(C)no3)cc2)cc1` [Example 95]: the EC50 was in the range of 0.1 to 90 nM.

For `CSc1ncccc1C(=O)N1CCC[C@H]1C(=O)Nc1ccc(/C=C/c2ccc(NC(=O)[C@@H]3CCCN3C(=O)c3cccnc3SC)cc2)cc1` [Example 192], the concentration giving a half-maximal response (EC50) was in the range of 100 to 1000 nM. Regarding `O=C(Nc1ccc(/C=C/c2ccc(NC(=O)[C@@H]3CCCN3C(=O)c3n[nH]c4ccccc34)cc2)cc1)[C@@H]1CCCN1C(=O)c1n[nH]c2ccccc12` [Example 212], the EC50 lay in the range of 0.1 to 90 nM.

As for `CO[C@@H]1C[C@@H](C(=O)Nc2ccc(/C=C/c3ccc(NC(=O)[C@@H]4C[C@H](OC)CN4C(=O)OCc4ccccc4)cc3)cc2)N(C(=O)OCc2ccccc2)C1` [Example 15], the EC50 was in the range of 0.1 to 90 nM.

With `[N-]=[N+]=Nc1cccc(CC(=O)N2CCC[C@H]2C(=O)Nc2ccc(/C=C/c3ccc(NC(=O)[C@@H]4CCCN4C(=O)Cc4cccc(N=[N+]=[N-])c4)cc3)cc2)c1` [Example 128], the EC50 was 0.1 to 90 nM. In the case of `O=C(Nc1ccc(/C=C\c2ccc(NC(=O)[C@@H]3CCCN3C(=O)OCc3ccccc3)cc2)cc1)[C@@H]1CCCN1C(=O)OCc1ccccc1` [Example 6] it was 0.1 to 90 nM; in that of `CC(=O)N1CCC[C@H]1C(=O)Nc1ccc(/C=C/c2ccc(NC(=O)[C@@H]3CCCN3C(=O)Cc3cccnc3)cc2)cc1` [Example 50], 0.1 to 90 nM; in that of `COC(=O)N1CCC[C@H]1C(=O)Nc1ccc(/C=C/c2ccc(NC(=O)[C@@H]3CCCN3C(=O)OC)cc2)cc1` [Example 52], 100 to 1000 nM. For the compound `CN(C)[C@H]1C[C@@H](C(=O)Nc2ccc(/C=C/c3ccc(NC(=O)[C@@H]4C[C@H](N(C)C)CN4C(=O)Cc4ccccc4)cc3)cc2)N(C(=O)Cc2ccccc2)C1` [Example 225], the EC50 lay in the range of 0.1 to 90 nM. In the case of `CC(=O)N1CCCC1C(=O)Nc1ccc(/C=C/c2ccc(NC(=O)[C@@H]3CCCN3C(=O)Cc3ccccc3)cc2)cc1` (some centres unmarked) [Example 251], the EC50 was 0.1 to 90 nM.

For `CCCOc1cccnc1C(=O)N1CCC[C@H]1C(=O)Nc1ccc(/C=C/c2ccc(NC(=O)[C@@H]3CCCN3C(=O)c3ncccc3OCCC)cc2)cc1` [Example 159], the EC50 lay within 1000 to 10000 nM. Under `O=C(Cc1ccccc1)Nc1ccc(/C=C/c2ccc(NC(=O)[C@@H]3CCCN3C(=O)Cc3ccccc3)cc2)cc1` [Example 254] stands 100 to 1000 nM; under `O=C(Nc1ccc(/C=C\c2ccc(NC(=O)[C@@H]3C[C@@H](O)CN3C(=O)OCc3ccccc3)cc2)cc1)[C@@H]1C[C@@H](O)CN1C(=O)OCc1ccccc1` [Example 8], 100 to 1000 nM. With `CO[C@H]1C[C@@H](C(=O)Nc2ccc(/C=C/c3ccc(NC(=O)[C@@H]4C[C@H](OC)CN4C(=O)OCc4ccccc4)cc3)cc2)N(C(=O)OCc2ccccc2)C1` [Example 17], the half-maximal effective concentration (EC50) was 1000 to 10000 nM. In the case of `O=C(Nc1ccc(/C=C/c2ccc(NC(=O)[C@@H]3CCCN3C(=O)N3CCOCC3)cc2)cc1)[C@@H]1CCCN1C(=O)N1CCOCC1` [Example 287] it was 0.1 to 90 nM.

As for `O=C(Nc1ccc(/C=C/c2ccc(NC(=O)[C@@H]3CCCN3C(=O)c3ccccc3OCc3ccccc3)cc2)cc1)[C@@H]1CCCN1C(=O)c1ccccc1OCc1ccccc1` [Example 148], the EC50 is 1000 to 10000 nM. As to `CN(C)[C@H]1C[C@@H](C(=O)Nc2ccc(/C=C/c3ccc(NC(=O)[C@@H]4C[C@H](N(C)C)CN4C(=O)c4ccccc4NCc4ccccc4)cc3)cc2)N(C(=O)c2ccccc2NCc2ccccc2)C1` [Example 229], the EC50 is 1000 to 10000 nM. Regarding `CC(=O)N1CCC[C@H]1C(=O)Nc1ccc(/C=C/c2ccc(NC(=O)[C@@H]3CCCN3C(=O)Cc3ccccc3)cc2)cc1` [Example 258], the EC50 is 0.1 to 90 nM. Under `O=C(Nc1ccc(/C=C/c2ccc(NC(=O)[C@@H]3CCCN3C(=O)c3cnccn3)cc2)cc1)[C@@H]1CCCN1C(=O)c1cnccn1` [Example 178] stands 1000 to 10000 nM; under `CSCC(=O)N1CCC[C@H]1C(=O)Nc1ccc(/C=C/c2ccc(NC(=O)[C@@H]3CCCN3C(=O)c3ccccn3)cc2)cc1` [Example 84], 0.1 to 90 nM; under `CC(C)NC(=O)N1CCC[C@H]1C(=O)Nc1ccc(/C=C/c2ccc(NC(=O)[C@@H]3CCCN3C(=O)NC(C)C)cc2)cc1` [Example 285], 100 to 1000 nM.
